Test results reported in patent US20260357222A1, “GROWTH-BASED SELECTION PLATFORM FOR NONCANONICAL COFACTOR OXIDIZING ENZYMES” (The Regents of the University of California, priority 2022, published 2026).

Tests used:
[1] = target: T1, Lactobacillus pentosus NADH oxidase (Lp Nox), wild type, SEQ ID NO:1 (Lactiplantibacillus pentosus, UniProt A0A0U3FIG2); details: role: cofactor; oxidation of MNAH and BNAH by wild-type Lp Nox; cited from earlier work
T1 sequence (A0A0U3FIG2 1-450): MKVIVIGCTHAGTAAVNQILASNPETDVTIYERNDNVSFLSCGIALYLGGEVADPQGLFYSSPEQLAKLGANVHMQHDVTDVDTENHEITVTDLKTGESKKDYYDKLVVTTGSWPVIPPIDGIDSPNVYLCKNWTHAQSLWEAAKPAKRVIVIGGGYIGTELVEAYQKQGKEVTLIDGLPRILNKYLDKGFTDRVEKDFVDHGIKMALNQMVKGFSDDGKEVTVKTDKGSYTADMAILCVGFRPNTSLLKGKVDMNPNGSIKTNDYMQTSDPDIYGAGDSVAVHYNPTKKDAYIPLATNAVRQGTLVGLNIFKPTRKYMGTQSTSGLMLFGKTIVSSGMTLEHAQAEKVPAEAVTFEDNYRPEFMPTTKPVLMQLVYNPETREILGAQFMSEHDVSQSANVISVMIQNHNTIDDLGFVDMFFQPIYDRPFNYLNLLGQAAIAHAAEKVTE

[2] = target: T2, Lactobacillus pentosus NADH oxidase (Lp Nox) variant LP-3-EP (I158S-D177W-G178E-V240L-P362H-V395L), SEQ ID NO:7 (Lactiplantibacillus pentosus, UniProt A0A0U3FIG2, D177W/G178E/I158S/P362H/V240L/V395L); assay: Lp Nox enzymatic kinetics, cofactor oxidation at 340 nm, variant LP-3-EP; type: biochemical
T2 construct: variant LP-3-EP
T2 sequence (A0A0U3FIG2 1-450 I158S/D177W/G178E/V240L/P362H/V395L): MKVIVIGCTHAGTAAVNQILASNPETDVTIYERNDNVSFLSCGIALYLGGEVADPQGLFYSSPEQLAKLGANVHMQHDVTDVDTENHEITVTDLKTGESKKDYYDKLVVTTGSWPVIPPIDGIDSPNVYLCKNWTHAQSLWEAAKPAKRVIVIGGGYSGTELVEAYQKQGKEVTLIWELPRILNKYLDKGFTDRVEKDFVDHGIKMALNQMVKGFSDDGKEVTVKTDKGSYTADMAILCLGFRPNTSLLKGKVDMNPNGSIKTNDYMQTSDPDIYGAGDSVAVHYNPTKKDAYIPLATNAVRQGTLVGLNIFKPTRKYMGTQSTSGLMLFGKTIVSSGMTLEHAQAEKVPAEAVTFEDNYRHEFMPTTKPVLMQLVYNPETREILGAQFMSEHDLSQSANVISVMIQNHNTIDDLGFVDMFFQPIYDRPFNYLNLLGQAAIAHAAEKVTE
Procedure: (§1) Protein Expression and Purification. Lp Nox wild type or variants (see Table 1) are expressed with E. coli BL21 (DE3) with plasmids inoculated in 2× YT media with 200 mg L^−1 ampicillin. Expression was carried out by inoculation of 20 mL 2× YT media supplied with antibiotics and an overnight culture incubated at 30 °C, 250 RPM with an OD600nm of 0.072. Cells were grown at 37 °C in 50 mL conical tubes, and the cultures were induced with 0.5 mM IPTG at an OD600nm of 0.6-1.0. The 20 mL culture was then incubated at 27 °C and 250 RPM for 24 h. After 24 h, cells were harvested for protein extraction (centrifugation at 4 °C, 3000 RPM, 20 min). Cell pellets were resuspended in Zymo His-Binding buffer (Zymo Research Corporation) supplied with 0.15 mM FAD, 1 μL/mL DNase (Sigma Aldrich) and 1 mM InSolution [COMPOUND LEFT OUT] (Sigma Aldrich). The resuspended cell mixture was added to 0.5 mL of 0.1 mm glass beads (Biospec) and homogenized using a benchtop homogenizer (MP Biomedicals). Cell debris was separated from the crude extract by centrifugation at 4 °C and 15,000 RPM for 5 min. Protein purification was performed using His-Spin Protein Miniprep (Zymo Research Corporation) according to the manufacturer's instructions. The concentrations of purified protein were quantified by a Bradford assay using BSA as a standard. Purified protein was stored in aliquots with 20% (v/v) glycerol at −80 °C.
(§2) NMNH generation. NMNH generation was performed in 20 mL reaction volumes in a 50 ml conical tube containing 200 mM Tris-Cl at pH 8.0, 100 mM sodium chloride, 3 mM potassium chloride, 200 mM glucose, and 20 m MNMN^+. The reaction was initiating by spiking 500 ng of purified Bacillus subtilis glucose dehydrogenase I195R8. The reaction was incubated at 30 °C until reaction progression stopped, approximately 6 h. Reaction progression was monitored by observing the increase in light absorption at 340 nm, corresponding to the reduction of NMN^+ to NMNH. Then, the solution was filtered through a 15 kD cutoff filter to remove the protein. To purify the NMNH, the flowthrough was mixed with HPLC-grade acetonitrile to a final concentration of 70% acetonitrile, and the solution was passed through a Phenomenex Strata NH2 (2 g/12 mL, 55 μm, 70 Å) solid phase extraction column. The column was washed twice with 4 mL of 70:30 acetonitrile:water, then twice with 4 mL of 50:50 acetonitrile:water, twice with 4 mL of 30:70 acetonitrile:water, twice with 4 mL of nanopurified water, and finally twice with 4 mL of methanol. To elute the NMNH from the column, 2 mL of a solution containing 50:50 ammonium hydroxide:methanol was added to the column and incubated for 3 minutes before eluting. The elution step was repeated until no NMNH remained in the flow through, as monitored by light absorption at 340 nm. The elution fractions containing NMNH were pooled and aliquoted in 1 mL volumes into clean tubes. The solutions were dried over air and stored at −80 °C until use.
(§3) Lp Nox Enzymatic Assays and Kinetic study with NMNH, NAD(P) H. The Lp Nox activity (see FIG. 4A) was determined by the change in light absorption at 340 nm at 37 °C in 50 mM Tris-Cl buffer pH 7.0. The reactions were started by adding the purified protein to the prewarmed 37 °C assay mixture containing 0.3 mM of respective cofactor. The absorbance change at 340 nm for NAD(P) H and NMNH was detected using a SpectraMax M3 microplate reader. For kinetics parameter determination (see Table 2), cofactor concentrations were varied from 0 to 2 mM and the results were fitted to the standard Michaelis-Menten equation or Lineweaver-Burk equation to acquire catalytic efficiencies (kcat/Km) when the cofactor concentration tested could not saturate the enzyme activity or during the presence of substrate inhibition. Cofactor concentration over 2 mM could not be measured accurately on M3 spectrometer due to detector absorbance saturation at 340 nm.

[3] = target: T3, Lactobacillus pentosus NADH oxidase (Lp Nox) variant LP-7 (I158S-D177W-V240L), SEQ ID NO:3 (Lactiplantibacillus pentosus, UniProt A0A0U3FIG2, D177W/I158S/V240L); assay: Lp Nox enzymatic kinetics, cofactor oxidation at 340 nm, variant LP-7; type: biochemical; details: role: cofactor; apparent; 50 mM Tris-HCl pH 7.0, 37 °C; cofactor 0 to 2 mM
T3 construct: variant LP-7
T3 sequence (A0A0U3FIG2 1-450 I158S/D177W/V240L): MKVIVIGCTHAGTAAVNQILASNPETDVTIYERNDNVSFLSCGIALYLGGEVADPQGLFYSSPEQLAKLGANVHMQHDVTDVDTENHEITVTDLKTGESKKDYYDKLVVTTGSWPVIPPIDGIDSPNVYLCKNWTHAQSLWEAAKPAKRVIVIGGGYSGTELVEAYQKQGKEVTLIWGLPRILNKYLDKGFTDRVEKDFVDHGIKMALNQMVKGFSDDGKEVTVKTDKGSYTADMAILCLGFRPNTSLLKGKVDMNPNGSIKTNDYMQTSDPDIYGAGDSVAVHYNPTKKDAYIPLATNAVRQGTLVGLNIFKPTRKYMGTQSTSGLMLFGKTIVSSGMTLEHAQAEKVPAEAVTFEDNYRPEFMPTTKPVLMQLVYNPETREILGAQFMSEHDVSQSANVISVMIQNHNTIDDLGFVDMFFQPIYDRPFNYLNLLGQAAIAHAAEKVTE
Procedure: as §1, §2, §3

[4] = target: T4, Lactobacillus pentosus NADH oxidase (Lp Nox) variant LP-3 (I158S-D177W-G178E-V240L), SEQ ID NO:6 (Lactiplantibacillus pentosus, UniProt A0A0U3FIG2, D177W/G178E/I158S/V240L); assay: Lp Nox enzymatic kinetics, cofactor oxidation at 340 nm, variant LP-3; type: biochemical; details: role: cofactor; apparent; 50 mM Tris-HCl pH 7.0, 37 °C; cofactor 0 to 2 mM
T4 construct: variant LP-3
T4 sequence (A0A0U3FIG2 1-450 I158S/D177W/G178E/V240L): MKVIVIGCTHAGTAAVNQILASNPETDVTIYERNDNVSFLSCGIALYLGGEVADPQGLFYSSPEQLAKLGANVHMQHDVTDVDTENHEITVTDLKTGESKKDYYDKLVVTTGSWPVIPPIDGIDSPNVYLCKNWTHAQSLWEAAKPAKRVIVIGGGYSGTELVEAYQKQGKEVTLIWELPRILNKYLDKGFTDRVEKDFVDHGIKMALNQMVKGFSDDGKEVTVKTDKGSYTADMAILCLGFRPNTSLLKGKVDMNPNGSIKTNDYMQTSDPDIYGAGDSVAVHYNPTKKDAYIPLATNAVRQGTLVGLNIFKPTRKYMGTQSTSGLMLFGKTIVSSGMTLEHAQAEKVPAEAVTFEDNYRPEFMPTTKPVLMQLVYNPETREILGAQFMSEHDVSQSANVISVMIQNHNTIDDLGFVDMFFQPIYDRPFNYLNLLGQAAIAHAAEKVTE
Procedure: as §1, §2, §3

NC(=O)C1=CN(Cc2ccccc2)C=CC1 [BNAH, 1-Benzyl-1,4-dihydronicotinamide]
catalytic efficiencies (in words) [1]: low catalytic efficiencies

CN1C=CCC(C(N)=O)=C1 [MNAH, N-methyl-1,4-dihydronicotinamide]
catalytic efficiencies (in words) [1]: low catalytic efficiencies

NC(=O)C1=CN([C@@H]2O[C@H](COP(=O)(O)OP(=O)(O)OC[C@H]3O[C@@H](n4cnc5c(N)ncnc54)[C@H](O)[C@@H]3O)[C@@H](O)[C@H]2O)C=CC1 [NADH, nicotinamide adenine dinucleotide]
kcat/Km ([2]; role: cofactor, 50 mM Tris-HCl pH 7.0, 37 °C, estimated based on kinetics under lower cofactor concentrations before inhibition was observed): 49 ± 2.0^c mM^−1s^−1 | inhibition of LP 3-EP activity by the cofactor ([2]; role: inhibitor (cofactor inhibition), above 1 mM NADH or NADPH, fits poorly with the substrate inhibition rate equation): strongly inhibited | Km [3]: 1700 ± 200 µM | kcat [3]: 47 ± 4 s⁻¹ | kcat/Km [3]: 28000 ± 1000 M⁻¹ s⁻¹ | Km [4]: 1900 ± 40 µM | kcat [4]: 31 ± 1 s⁻¹ | kcat/Km [4]: 17000 ± 1000 M⁻¹ s⁻¹
